Legend:
PANC-1 cells [1] = assay: CD24/CD44/EpCam triple positive cells by flow cytometry; format: cell-based; conditions: 2.5, 5, 10 μM
Protocol: FIG. 24. De-ethylflavopereirine decreased the percentage of cancer stem cells in a pancreatic cancer cell population (24 hours). The panels show CD44 (PE-Cy7) positive and EpCam (APC) positive cells in the CD24 (PE) gate at concentrations of 0 μM (upper left), 2.5 μM (upper right), 5 μM (lower left), and 10 μM (lower right) de-ethylflavopereirine after 24 hr. “Q1”=CD24^+/CD44^+, “Triple+”=CD24^+/CD44^+/EpCam^+, “Q3”=CD24^+, and “Q4”=CD24^+/EpCam^+.
FIG. 25. De-ethylflavopereirine decreased the percentage of cancer stem cells in a pancreatic cancer cell population (48 hours). The panels show CD44 (PE-Cy7) positive and EpCam (APC) positive cells in the CD24 (PE) gate at concentrations of 0 μM (upper left), 2.5 μM (upper right), 5 μM (lower left), and 10 μM (lower right) de-ethylflavopereirine after 48 hr. “Q1”=CD24^+/CD44^+, “Triple+”=CD24^+/CD44^+/EpCam^+, “Q3”=CD24^+, and “Q4”=CD24^+/EpCam^+.
Cancer stem cells can be identified by specific cell-surface markers. A combination of three markers CD24, CD44, and EpCam is used for detection of pancreatic cancer stem cells. These markers can be labeled by different fluorophores and detected simultaneously by flow cytometry. Triple positive cells (i.e., cells that express all three markers) are regarded as pancreatic cancer stem cells. De-ethylflavopereirine reduced the percentage of pancreatic cancer stem cells in pancreatic cancer cell populations. PANC-1 cells were treated with 2.5 μM, 5.0 μM, and 10 μM concentrations of the compound for 24 hours or 48 hours. Triple positive cells were identified in quadrant Q2 (“Triple+”) of the flow cytometry output.

[2] = system: MIA PaCa, PANC-1, BxPc, AsPc; assay: MTT cell viability, pancreatic cancer cell lines; format: cell-based, human; conditions: 48 hr
Protocol: FIG. 8. Dose-response curves for cell viability of human pancreatic cancer cell lines MIA PaCa (squares), PANC-1 (lozenges), BxPc (crosses), and AsPc (triangles) exposed to de-ethylflavopereirine. Cells were cultured in the presence of increasing concentrations of the compound for 48 hr and cell viability was determined by MTT assay. MRC-5 (asterisks) was used as a control.
De-ethylflavopereirine was tested for its activity against ovarian, pancreatic, brain, and colon cancer cell lines. […] Cytotoxicity is assayed by reducing a yellow tetrazolium dye, 3-(4,5-dimethylthiazol-2-yl)-2,5-diphenyltetrazolium bromide (MTT), to insoluble purple formazan. The MTT assay is a colorimetric assay for determining the number of viable cells.

[3] = Toxicity in mice, intravenous administration; format: in vivo; conditions: 20 mg/kg and 40 mg/kg
Protocol: At 20 mg/kg and 40 mg/kg doses, intravenous administration of compound 13-9-1 in mice was well-tolerated. The 20 mg/kg dose provides sufficient serum concentration for the compound to exert its anti-tumor effect.
Oral administration was chosen for the mouse experiments because administration is simplified by avoiding the need for tail vein injections.

AM-38 = assay: Glioblastoma cell viability and proliferation assay (ATP), AM-38; format: cell-based; conditions: AM38, 72 hr
Protocol: FIG. 9. Glioblastoma in vitro cell viability and proliferation assay after treatment with de-ethylflavopereirine. Glioblastoma cell lines U-87MG, DBTRG-05MG, A172, and AM-38 were tested. Temozolomide, an oral chemotherapy drug known to treat some brain cancers, was used as a control. The concentrations of temozolomide (circles) or compound 13-9-1 (squares) used were 3 nM, 10 nM, 30 nM, 100 nM, 1 uM, 3 uM, 10 uM, and 30 uM. Each of the cell lines was treated with de-ethylflavopereirine for 72 hr before measuring cytotoxicity and inhibition of cell proliferation. Number of viable cells in culture based on quantitation of ATP. IC50 was determined as indicated below each graph.
The dose-response curves for the anti-brain cancer drug temozolomide are shown for comparison.

PANC-1 cells [4] = assay: Tumor formation and growth after inoculation of pretreated PANC-1 cells (FIG. 26); format: in vivo, mice
Protocol: FIG. 26. Effect of de-ethylflavopereirine on pancreatic cancer formation and growth. […] In the control group (top line of left graph), 86.67% (13/15) of the untreated mice formed tumors. Compound 13-9-1 (10 μM) decreased the rate to 80% (4/5); there was no effect on the time of tumor formation (bottom line of left graph). […] In the control group (top line of left graph), 80% (12/15) of the untreated mice formed tumors. Compound 13-9-1 (10 μM) decreased the tumor formation rate to 60% (3/5); this indicated reduction in tumor formation initiated by pancreatic cancer stem cells (bottom line of left graph). […] In FIG. 26C, after 2×10^4 PANC-1 cells were inoculated, 20% of the mice formed tumors in both the control group (3/15) and the treated group (1/5) at 38 days of observation.
In vivo, cancer stem cells are the primary source of tumor formation and growth. Thus, the rates of tumor formation and growth are indicators of cancer stem cell activity. When animals are inoculated with limited numbers of cancer cells, rates of tumor formation and growth can be accurately measured. It can then be determined whether a prospective agent slows the formation and growth rates of tumors, which is an indication of whether it acts against cancer stem cells. PANC-1 cancer cells were grown in suspension and pretreated with de-ethylflavopereirine at 10 μM concentration before inoculation into mice. As a negative control, PANC-1 cancer cells were not pretreated with the compound. Following inoculation, the rates of tumor formation and growth were measured. • 1) After 10^6 PANC-1 cells were inoculated, tumors formed in 87% of the mice in the control group and 80% of the mice in the treated group. […] De-ethylflavopereirine reduced tumor formation rate to 60%, indicating inhibition of pancreatic cancer stem cells. […] De-Ethylflavopereirine Suppresses PANC-1 Tumor Formation In Vivo: Anti-Cancer Stem Cell Activity

PANC-1 cells [5] = assay: Spheroid formation (cancer stem cells); format: cell-based
Protocol: FIG. 22. PANC-1 cell suspensions were treated at concentrations of 0 μM (negative control), 2.5 μM, 5.0 μM, and 10.0 μM de-ethylflavopereirine then examined for the presence of spheroids.
FIG. 23. Primary spheroids from first round were collected and seeded for secondary spheroid formation. Following treatment with concentrations of 0 μM (negative control), 2.5 μM, 5.0 μM, and 10.0 μM de-ethylflavopereirine, suspensions were examined.
In vitro, cancer stem cells form spheroids: clusters of cancer cells surrounding a cancer stem cell. Inhibition of spheroid formation is a test for anti-cancer stem cell activity of a compound.

[6] = 1×10^6 PANC-1 cells pretreated at 10 μM
[7] = 2×10^5 PANC-1 cells pretreated at 10 μM

c1ccc2c(c1)[nH]c1c2cc[n+]2ccccc12 [Compound 13-9-1, 12H-indolo[2,3-a]quinolizin-5-ium]
CD24+/CD44+/EpCam+ (triple positive) cell population (PANC-1 cells [1]; 24 hr, listed as De-ethylflavopereirine): Reduction | CD24+/CD44+/EpCam+ (triple positive) cell population (PANC-1 cells [1]; 24 hr, listed as de-ethylflavopereirine): reduced the CD24^+/CD44^+/EpCam^+ cell population | CD24+/CD44+/EpCam+ (triple positive) cell population (PANC-1 cells [1]; 48 hr): reduced the CD24^+/CD44^+/EpCam^+ cell population | cell viability [2]: dose-dependent decrease in cancer cell viability | tolerability of intravenous administration [3]: well-tolerated | IC50 relative to IC50 of temozolomide (AM-38): 0.66 times | growth of tumors formed (PANC-1 cells [4]; [6]): reduced the growth of tumors | time of tumor formation (PANC-1 cells [4]; [6]): no effect | tumor formation rate (mice that formed tumors) (PANC-1 cells [4]; [6]): 80% | growth of tumors formed (PANC-1 cells [4]; 1×10^6 PANC-1 cells pretreated at 10 μM, listed as De-ethylflavopereirine): significantly inhibited the growth | growth of tumors formed (PANC-1 cells [4]; 2×10^4 PANC-1 cells pretreated at 10 μM): not significantly different | tumor formation rate (mice that formed tumors) (PANC-1 cells [4]; 2×10^4 PANC-1 cells pretreated at 10 μM, 38 days): 20% | growth of tumors formed (PANC-1 cells [4]; [7]): significantly reduced tumor growth | tumor formation rate (mice that formed tumors) (PANC-1 cells [4]; [7]): 60% | growth of tumors formed (PANC-1 cells [4]; 2×10^5 PANC-1 cells pretreated at 10 μM, listed as De-ethylflavopereirine): slowed the growth rate | secondary spheroid formation (PANC-1 cells [5]; 2.5 μM): significant inhibition | primary spheroid formation (PANC-1 cells [5]; 5 μM and 10 μM): significantly inhibited primary spheroid formation | secondary spheroid formation (PANC-1 cells [5]; 5 μM and 10 μM): completely inhibited

Reference: patent publication US11083714B2, “Selective anti-cancer agent effective for prevention and treatment” (Molecular International Research, Inc., priority 2018, dated 2021)
